# According to ChEMBL document CHEMBL3885861, “Open TG-GATES”:
# Organism: Rattus norvegicus
# Assay: Open TG-GATES - Regimen: Daily Repeat
# Assay type: toxicity, organism-based, Sprague-Dawley
# Set-up: regimen Daily Repeat, gender Male, age 6 weeks
# Settings: in vivo, po, route gavage; for Eos / Fbg / Hb / Ht / Lym / MCHC / MCV / Mono / Neu / PT / Plat / RBC / Ret / WBC / Bas: tissue Blood; for ALP / AST / BUN / CRE / Ca / Cl / DBIL / GLC / IP / K / LDH / Na / PL / RALB / TBIL / TC / TG / TP / gamma-GTP / ALT: tissue Plasma
# [1] = 300 mg/kg, 72 h, dose level Middle, time 3 day
# [2] = 300 mg/kg, […], dose level Middle, time 7 day
# [3] = 300 mg/kg, […], dose level Middle, time 14 day
# [4] = 300 mg/kg, […], dose level Middle, time 28 day
# [5] = 1000 mg/kg, 72 h, dose level High, time 3 day
# [6] = 1000 mg/kg, […], dose level High, time 7 day
# [7] = 1000 mg/kg, […], dose level High, time 14 day
# [8] = 1000 mg/kg, […], dose level High, time 28 day
compound,measurement,setting,value
O=C(O)c1cccnc1 [NIACIN],Eos,[1],1%
same,Fbg,[1],314.2 mg/dL
same,Hb,[1],13.3 g/dL
same,Ht,[1],40.2%
same,Lym,[1],75.2%
same,MCHC,[1],33%
same,MCV,[1],63.4 fL
same,Mono,[1],3.6%
same,Neu,[1],19%
same,PT,[1],16 s
same,Plat,[1],132.1 x10_4/uL
same,RBC,[1],635.6 x10_4/ul
same,Ret,[1],7.2%
same,WBC,[1],106.7 x10_2/uL
same,ALP,[1],1606.8 IU/L
same,AST,[1],74.6 IU/L
same,BUN,[1],16.4 mg/dL
same,CRE,[1],0.2 mg/dL
same,Ca,[1],10.8 mg/dL
same,Cl,[1],104 meq/L
same,DBIL,[1],0 mg/dL
same,GLC,[1],191.6 mg/dL
same,IP,[1],8.2 mg/dL
same,K,[1],4.1 meq/L
same,LDH,[1],165.8 IU/L
same,Na,[1],139.6 meq/L
same,PL,[1],152.8 mg/dL
same,RALB,[1],3 g/dL
same,TBIL,[1],0 mg/dL
same,TC,[1],73.2 mg/dL
same,TG,[1],136.2 mg/dL
same,TP,[1],5.6 g/dL
same,gamma-GTP,[1],1.2 IU/L
same,TERMINAL_BW,[2],273.2 g
same,TERMINAL_BW,[3],321.5 g
same,TERMINAL_BW,[4],396.3 g
same,Bas,[2],0%
same,Eos,[2],1%
same,Fbg,[2],325.8 mg/dL
same,Hb,[2],13.8 g/dL
same,Ht,[2],41.4%
same,Lym,[2],75%
same,MCHC,[2],33.4%
same,MCV,[2],63.5 fL
same,Mono,[2],3.4%
same,Neu,[2],19.2%
same,PT,[2],15.6 s
same,Plat,[2],112.8 x10_4/uL
same,RBC,[2],652.2 x10_4/ul
same,Ret,[2],6%
same,WBC,[2],104.1 x10_2/uL
same,Bas,[3],0%
same,Eos,[3],0.6%
same,Fbg,[3],325.2 mg/dL
same,Ht,[3],42.2%
same,Lym,[3],72.6%
same,MCHC,[3],33.7%
same,MCV,[3],59.8 fL
same,Mono,[3],3.4%
same,Neu,[3],21.8%
same,PT,[3],15.5 s
same,Plat,[3],109.4 x10_4/uL
same,RBC,[3],705.8 x10_4/ul
same,Ret,[3],4.7%
same,WBC,[3],119.8 x10_2/uL
same,Bas,[4],0%
same,Eos,[4],1.2%
same,Fbg,[4],336.6 mg/dL
same,Hb,[4],15 g/dL
same,Ht,[4],42.6%
same,Lym,[4],74.8%
same,MCHC,[4],35.3%
same,MCV,[4],56 fL
same,Mono,[4],2.8%
same,PT,[4],16.1 s
same,Plat,[4],100.4 x10_4/uL
same,RBC,[4],761.2 x10_4/ul
same,Ret,[4],2.6%
same,WBC,[4],105.7 x10_2/uL
same,ALP,[2],1661 IU/L
same,ALT,[2],47.8 IU/L
same,AST,[2],76 IU/L
same,BUN,[2],17.6 mg/dL
same,CRE,[2],0.1 mg/dL
same,Ca,[2],10.7 mg/dL
same,Cl,[2],105 meq/L
same,DBIL,[2],0 mg/dL
same,GLC,[2],189 mg/dL
same,IP,[2],7.4 mg/dL
same,K,[2],4.3 meq/L
same,LDH,[2],138.4 IU/L
same,Na,[2],139.8 meq/L
same,PL,[2],161.8 mg/dL
same,RALB,[2],2.9 g/dL
same,TBIL,[2],0 mg/dL
same,TC,[2],79.6 mg/dL
same,TG,[2],135.8 mg/dL
same,TP,[2],5.5 g/dL
same,gamma-GTP,[2],1.4 IU/L
same,ALP,[3],1495.2 IU/L
same,ALT,[3],39.6 IU/L
same,AST,[3],68.8 IU/L
same,CRE,[3],0.2 mg/dL
same,Ca,[3],10.7 mg/dL
same,Cl,[3],104.4 meq/L
same,DBIL,[3],0 mg/dL
same,GLC,[3],201 mg/dL
same,IP,[3],6.8 mg/dL
same,K,[3],3.9 meq/L
same,LDH,[3],166.4 IU/L
same,Na,[3],137.6 meq/L
same,PL,[3],162.6 mg/dL
same,RALB,[3],3.1 g/dL
same,TBIL,[3],0.006 mg/dL
same,TC,[3],77.6 mg/dL
same,TG,[3],156 mg/dL
same,TP,[3],5.8 g/dL
same,gamma-GTP,[3],1.8 IU/L
same,ALP,[4],1059.8 IU/L
same,ALT,[4],41.4 IU/L
same,AST,[4],71.2 IU/L
same,BUN,[4],16 mg/dL
same,CRE,[4],0.2 mg/dL
same,Ca,[4],10.4 mg/dL
same,Cl,[4],107 meq/L
same,DBIL,[4],0 mg/dL
same,GLC,[4],193.6 mg/dL
same,IP,[4],6.3 mg/dL
same,K,[4],4.4 meq/L
same,LDH,[4],149.2 IU/L
same,Na,[4],143 meq/L
same,PL,[4],140.4 mg/dL
same,RALB,[4],3 g/dL
same,TBIL,[4],0.008 mg/dL
same,TC,[4],69.4 mg/dL
same,TG,[4],126.6 mg/dL
same,TP,[4],6.1 g/dL
same,gamma-GTP,[4],2.8 IU/L
same,TERMINAL_BW,[5],239.5 g
same,Bas,[5],0%
same,Eos,[5],0.8%
same,Fbg,[5],319.4 mg/dL
same,Hb,[5],13.5 g/dL
same,Ht,[5],40.1%
same,Lym,[5],73.6%
same,MCHC,[5],33.5%
same,MCV,[5],62.3 fL
same,Mono,[5],3.8%
same,Plat,[5],119.3 x10_4/uL
same,RBC,[5],645 x10_4/ul
same,Ret,[5],5.7%
same,WBC,[5],116 x10_2/uL
same,ALP,[5],1534.6 IU/L
same,ALT,[5],48.8 IU/L
same,AST,[5],77.8 IU/L
same,BUN,[5],17.2 mg/dL
same,CRE,[5],0.2 mg/dL
same,Ca,[5],10.9 mg/dL
same,Cl,[5],104.2 meq/L
same,DBIL,[5],0 mg/dL
same,GLC,[5],187.6 mg/dL
same,IP,[5],8.5 mg/dL
same,K,[5],4.1 meq/L
same,LDH,[5],176.6 IU/L
same,Na,[5],139.4 meq/L
same,PL,[5],148.8 mg/dL
same,RALB,[5],3.1 g/dL
same,TBIL,[5],0 mg/dL
same,TC,[5],73.4 mg/dL
same,TG,[5],97.6 mg/dL
same,TP,[5],5.6 g/dL
same,gamma-GTP,[5],1.2 IU/L
same,TERMINAL_BW,[6],270 g
same,TERMINAL_BW,[7],315.4 g
same,TERMINAL_BW,[8],425.7 g
same,Bas,[6],0%
same,Eos,[6],0.8%
same,Fbg,[6],325.4 mg/dL
same,Hb,[6],13.6 g/dL
same,Ht,[6],40.6%
same,Lym,[6],77.2%
same,MCHC,[6],33.5%
same,MCV,[6],61.6 fL
same,Mono,[6],3.4%
same,Neu,[6],16.8%
same,PT,[6],16 s
same,Plat,[6],107.2 x10_4/uL
same,RBC,[6],659.8 x10_4/ul
same,Ret,[6],6.7%
same,WBC,[6],127.7 x10_2/uL
same,Bas,[7],0%
same,Eos,[7],0.6%
same,Fbg,[7],295.4 mg/dL
same,Hb,[7],13.9 g/dL
same,Ht,[7],41.5%
same,Lym,[7],75.2%
same,MCHC,[7],33.6%
same,Mono,[7],2.4%
same,Neu,[7],19.8%
same,PT,[7],15.2 s
same,Plat,[7],114.8 x10_4/uL
same,RBC,[7],684.2 x10_4/ul
same,Ret,[7],4.6%
same,WBC,[7],131.3 x10_2/uL
same,Bas,[8],0%
same,Eos,[8],1%
same,Fbg,[8],310.8 mg/dL
same,Hb,[8],14.8 g/dL
same,Ht,[8],42.1%
same,Lym,[8],75.6%
same,MCHC,[8],35.2%
same,MCV,[8],56.4 fL
same,Mono,[8],3.6%
same,Neu,[8],18.2%
same,PT,[8],15.8 s
same,Plat,[8],88.1 x10_4/uL
same,RBC,[8],747.2 x10_4/ul
same,Ret,[8],2.7%
same,WBC,[8],127.6 x10_2/uL
same,ALP,[6],1693.6 IU/L
same,ALT,[6],45.6 IU/L
same,AST,[6],77.6 IU/L
same,BUN,[6],15.8 mg/dL
same,CRE,[6],0.2 mg/dL
same,Ca,[6],10.6 mg/dL
same,Cl,[6],104.8 meq/L
same,DBIL,[6],0 mg/dL
same,GLC,[6],196.6 mg/dL
same,IP,[6],7.5 mg/dL
same,K,[6],4.5 meq/L
same,LDH,[6],137.2 IU/L
same,Na,[6],139 meq/L
same,PL,[6],142.4 mg/dL
same,RALB,[6],3 g/dL
same,TBIL,[6],0.004 mg/dL
same,TC,[6],69.2 mg/dL
same,TG,[6],107 mg/dL
same,TP,[6],5.6 g/dL
same,gamma-GTP,[6],1.8 IU/L
same,ALP,[7],1458 IU/L
same,ALT,[7],44.8 IU/L
same,AST,[7],86.8 IU/L
same,BUN,[7],17.2 mg/dL
same,CRE,[7],0.2 mg/dL
same,Ca,[7],10.5 mg/dL
same,Cl,[7],105.2 meq/L
same,DBIL,[7],0 mg/dL
same,GLC,[7],195.6 mg/dL
same,IP,[7],7 mg/dL
same,K,[7],4.1 meq/L
same,LDH,[7],140.8 IU/L
same,Na,[7],138.8 meq/L
same,PL,[7],150.8 mg/dL
same,RALB,[7],3.1 g/dL
same,TBIL,[7],0.012 mg/dL
same,TC,[7],67.2 mg/dL
same,TG,[7],163.6 mg/dL
same,TP,[7],5.7 g/dL
same,gamma-GTP,[7],1.8 IU/L
same,ALP,[8],1046.8 IU/L
same,ALT,[8],47 IU/L
same,AST,[8],80.8 IU/L
same,BUN,[8],17.8 mg/dL
same,CRE,[8],0.2 mg/dL
same,Ca,[8],10.5 mg/dL
same,Cl,[8],104 meq/L
same,DBIL,[8],0 mg/dL
same,GLC,[8],196.6 mg/dL
same,IP,[8],7.1 mg/dL
same,K,[8],4.2 meq/L
same,LDH,[8],157.4 IU/L
same,Na,[8],143.4 meq/L
same,PL,[8],152 mg/dL
same,RALB,[8],3 g/dL
same,TBIL,[8],0.01 mg/dL
same,TC,[8],68.4 mg/dL
same,TG,[8],184 mg/dL
same,TP,[8],5.8 g/dL
same,gamma-GTP,[8],2.4 IU/L
